Values after ≈ are worked out from the molar mass of the structure shown. Where two headings read alike, the source gives them in different places. Bridge positions count the residues as written; N and C are the ends. Square brackets hold non-standard residues; d marks the D form. Peptide text beside a SMILES is read from it. * marks the point of attachment. Ileψ(thiazoline)Cys = CC[C@H](C)[C@H](N)C1=N[C@H](C(=O)*)CS1; dOrn = NCCC[C@@H](N)C(=O)O
What was measured:
Paenibacillus sp. LC231 [1] = tested on: T1, Paenibacillus sp. LC231; assay: microbe, parasite or virus in culture; set-up: antibacterial susceptibility, minimal inhibitory concentration (quantitative antibiogram)
T1 construct: LC231
From the text: (§1) We generated a quantitative antibiogram for Paenibacillus sp. LC231 for 40 different antibiotics that target diverse cellular processes and compared it with the susceptibility of a surface strain of Paenibacillus lautus ATCC 43898, the pathogen Staphylococcus aureus RN4220 and the environmental bacterium Kocuria rhizophila (formerly identified as Micrococcus luteus) (Supplementary Tables 1 and 2). […] Further experiments in this study investigate the molecular basis of resistance and not the contribution of each genetic determinant to the resistance phenotype of Paenibacillus sp. LC231. […] We focused our investigation on Paenibacillus sp. LC231 and determined that in addition to resistance to 14 classes of antibiotic, it inactivates 7 distinct classes.

Paenibacillus sp. LC231 [2] = tested on: T1, Paenibacillus sp. LC231; assay: microbe, parasite or virus in culture; set-up: broth microdilution MIC, growth inhibition of Paenibacillus sp. LC231
From the text: as §1

MphI = tested on: T2, MphI; assay: steady-state kinetics; format: biochemical, Paenibacillus sp. LC231; details: 400 μM tylosin, 50 mM HEPES pH 7.5, 40 mM KCl, 10 mM MgCl2, 25 °C
T2 construct: recombinant in E. coli BL21(DE3), pET vector, Ni-NTA purified

AAC(6′)-34 = tested on: T3, AAC(6′)-34; assay: CoA liberation with DTDP, steady-state kinetics; format: biochemical, Paenibacillus sp. LC231; details: 500 μM acetyl-CoA, 25 mM MES pH 6.0, 1 mM EDTA, 25 °C
T3 construct: recombinant in E. coli BL21(DE3), pET vector, Ni-NTA purified

Row | MIC (Paenibacillus sp. LC231 [1]) [µg/mL] | SMILES | further results
1 | 8 (≈ 22.9 µM) | CC1(C)S[C@@H]2[C@H](NC(=O)[C@H](N)c3ccccc3)C(=O)N2[C@H]1C(=O)O [Ampicillin] | –
2 | ≥ 128 | CC1=C(C(=O)O)N2C(=O)[C@@H](NC(=O)[C@H](N)c3ccccc3)[C@H]2SC1 [Cephalexin] | –
3 | – | CC[C@H](C)[C@H](N)C1=N[C@H](C(=O)N[C@@H](CC(C)C)C(=O)N[C@H](CCC(=O)O)C(=O)N[C@H](C(=O)N[C@H]2CCCCNC(=O)[C@H](CC(N)=O)NC(=O)[C@@H](CC(=O)O)NC(=O)[C@H](Cc3cnc[nH]3)NC(=O)[C@@H](Cc3ccccc3)NC(=O)[C@H]([C@@H](C)CC)NC(=O)[C@@H](CCCN)NC2=O)[C@@H](C)CC)CS1 [Bacitracin] ({Ileψ(thiazoline)Cys}-L[dE]IK[dOrn]I[dF]H[dD]N; lactam 4-C) | MIC (Paenibacillus sp. LC231 [2]): ≥ 128 µg/mL
4 | 32 (≈ 60.2 µM) | CC1=C\[C@@H](O)C[C@@H](F)Cc2nc(co2)C(=O)N2CCC[C@@H]2C(=O)O[C@H](C(C)C)[C@H](C)/C=C/C(=O)NC\C=C\1 [Flopristin] | –
5 | 0.25 (≈ 0.692 µM) | C[C@H]1COc2c(N3CCN(C)CC3)c(F)cc3c(=O)c(C(=O)O)cn1c23 [Levofloxacin] | –
6 | ≥ 128 | CN[C@@H]1[C@H](O[C@H]2[C@H](O[C@H]3[C@H](O)[C@@H](O)[C@H](N=C(N)N)[C@@H](O)[C@@H]3N=C(N)N)O[C@@H](C)[C@]2(O)C=O)O[C@@H](CO)[C@H](O)[C@H]1O [Streptomycin] | –
7 | ≥ 128 | NC[C@H]1O[C@H](O[C@H]2[C@H](O)[C@@H](O[C@H]3O[C@H](CO)[C@@H](O)[C@H](N)[C@H]3O)[C@H](N)C[C@@H]2N)[C@H](O)[C@@H](O)[C@@H]1O [Kanamycin] | –
8 | 32 (≈ 68.4 µM) | NC[C@H]1O[C@H](O[C@H]2[C@H](O)[C@@H](O[C@H]3O[C@H](CO)[C@@H](O)[C@H](N)[C@H]3O)[C@H](N)C[C@@H]2N)[C@H](N)C[C@@H]1O [Tobramycin] | –
9 | 32 | N=C1NCCC([C@@H]2NC(=O)/C(=C/NC(N)=O)NC(=O)[C@H](CNC(=O)CC(N)CCCN)NC(=O)[C@H](CO)NC(=O)[C@@H](N)CNC2=O)N1 (mixture of isomers) [capreomycin] | –
10 | 2 (≈ 4.19 µM) | CNC(C)[C@@H]1CC[C@@H](N)[C@@H](O[C@H]2[C@H](O)[C@@H](O[C@H]3OC[C@](C)(O)[C@H](NC)[C@H]3O)[C@H](N)C[C@@H]2N)O1 (some centres unmarked) [Gentamicin] | –
11 | 2 (≈ 4.39 µM) | CO/N=C(\C(=O)N[C@@H]1C(=O)N2C(C(=O)O)=C(COC(C)=O)CS[C@H]12)c1csc(N)n1 [Cefotaxime] | –
12 | 2 (≈ 2.73 µM) | CC[C@H]1OC(=O)[C@H](C)[C@@H](O[C@H]2C[C@@](C)(OC)[C@@H](O)[C@H](C)O2)[C@H](C)[C@@H](O[C@@H]2O[C@H](C)C[C@H](N(C)C)[C@H]2O)[C@](C)(O)C[C@@H](C)C(=O)[C@H](C)[C@@H](O)[C@]1(C)O [Erythromycin] | –
13 | 1 (≈ 0.69 µM) | CN[C@H](CC(C)C)C(=O)N[C@H]1C(=O)N[C@@H](CC(N)=O)C(=O)N[C@H]2C(=O)N[C@H]3C(=O)N[C@H](C(=O)N[C@H](C(=O)O)c4cc(O)cc(O)c4-c4cc3ccc4O)[C@H](O)c3ccc(c(Cl)c3)Oc3cc2cc(c3O[C@@H]2O[C@H](CO)[C@@H](O)[C@H](O)[C@H]2O[C@H]2C[C@](C)(N)[C@H](O)[C@H](C)O2)Oc2ccc(cc2Cl)[C@H]1O [Vancomycin] | –
14 | 1 (≈ 1.22 µM) | CO[C@H]1/C=C/O[C@@]2(C)Oc3c(C)c(O)c4c(O)c(c(/C=N/N5CCN(C)CC5)c(O)c4c3C2=O)NC(=O)/C(C)=C\C=C\[C@H](C)[C@H](O)[C@@H](C)[C@@H](O)[C@@H](C)[C@H](OC(C)=O)[C@@H]1C [rifampin] | –
15 | 1 (≈ 2.96 µM) | CC(=O)NC[C@H]1CN(c2ccc(N3CCOCC3)c(F)c2)C(=O)O1 [Linezolid] | –
16 | 0.25 (≈ 0.754 µM) | O=C(O)c1cn(C2CC2)c2cc(N3CCNCC3)c(F)cc2c1=O [Ciprofloxacin] | –
17 | ≥ 128 | CN[C@@H]1[C@H](O)[C@H](NC)[C@H]2O[C@@]3(O)C(=O)C[C@@H](C)O[C@H]3O[C@@H]2[C@H]1O [Spectinomycin] | –
18 | – | Nc1nc2c(ncn2[C@@H]2O[C@H](COP(=O)(O)OP(=O)(O)OP(=O)(O)O)[C@@H](O)[C@H]2O)c(=O)[nH]1 [GTP] | Km (MphI): 10 ± 1.8 µM
19 | 8 (≈ 15.5 µM) | CC(=O)O[C@H]1C[C@@]2(C)[C@@H](C[C@@H](O)[C@H]3[C@@]4(C)CC[C@@H](O)[C@@H](C)[C@@H]4CC[C@@]32C)/C1=C(\CCC=C(C)C)C(=O)O [Fusidic acid] | –
20 | – | CN[C@@H]1[C@@H](O)[C@@H](O[C@@H]2[C@@H](O)[C@H](O[C@H]3OC(CN)=CC[C@H]3N)[C@@H](N)C[C@H]2N)OC[C@]1(C)O [sisomicin] | Km (AAC(6′)-34): 4.7 ± 0.4 µM

Reference: publication PMC5155152, “A diverse intrinsic antibiotic resistome from a cave bacterium” (Nature Communications, 2016)
